Several values for one entry are separate records, joined by “and”; a condition that tells them apart may be missing. Equal entries are not always repeated. Where two headings read alike, the source gives them in different places.

Experimental findings from patent US12091425B2 (AMGEN INC., priority 2016, dated 2024) are described below.

The target in series [1] is T1, Mcl-1/Bim interaction, recombinant human Mcl-1 (171-327) (Homo sapiens, UniProt Q07820).
T1 construct: made in house
In words: Cell free Mcl-1: Bim Affinity Assay (Mcl-1 HTRF). Format: binding. The following applies: TR-FRET, 0.1 nM Mcl-1 (171-327), 0.05 nM biotin-Bim (51-76). In short, it runs like this: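 Biotin-Bim(51-76) peptide, TR-FRET readout, overnight incubation; IC50 from duplicate competition curves, 4-parameter fit.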

T1 sequence (Q07820 171-327): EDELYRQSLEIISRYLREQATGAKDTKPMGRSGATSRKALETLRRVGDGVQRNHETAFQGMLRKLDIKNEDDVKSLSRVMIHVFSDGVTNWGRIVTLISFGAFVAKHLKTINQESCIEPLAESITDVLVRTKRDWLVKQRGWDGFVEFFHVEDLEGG

Compound `C[C@H]1CS(=O)(=O)NC(=O)c2ccc3c(c2)N(C[C@@H]2CC[C@H]2[C@@H](O)C=C[C@H]1CO[Si](c1ccccc1)(c1ccccc1)C(C)(C)C)C[C@@]1(CCCc2cc(Cl)ccc21)CO3` (single isomer, unassigned) came in with a ring closure, isolated yield (from C[C@@H](CS(N)(=O)=O)[C@@H](/C=C/[C@H](O)[C@@H]1CC[C@H]1CN1C[C@@]2(CCCc3cc(Cl)ccc32)COc2ccc(C(=O)O)cc21)CO[Si](c1ccccc1)(c1ccccc1)C(C)(C)C, amide bond, 16-membered ring, EDC/DMAP, DCM, 2.0 mM, 16.0 h, 3 steps) of 10.8%.
For the compound “(1S,3′R,6′R,7′S,8′E,12′S)-12′-((2R)-2-((tert-butyl(diphenyl)silyl)oxy)propyl)-6-chloro-7′-hydroxy-3,4-dihydro-2H,15′H-spiro[naphthalene-1,22′-[20]oxa[13]thia[1,14]diazatetracyclo[14.7.2.0^3,6.0^19,24]pentacosa[8,16,18,24]tetraen]-15′-one 13′,13′-dioxide or (1S,3′R,6′R,7′S,8′E,12′R)-12′-((2R)-2-((tert-butyl(diphenyl)silyl)oxy)propyl)-6-chloro-7′-hydroxy-3,4-dihydro-2H,15′H-spiro[naphthalene-1,22′-[20]oxa[13]thia[1,14]diazatetracyclo[14.7.2.0^3,6.0^19,24]pentacosa[8,16,18,24]tetraen]-15′-one 13′,13′-dioxide”, the ring closure, isolated yield (rcm bond, 16-membered ring, Hoveyda-Grubbs II, DCM, 1.5 mM, 45.0 °C) is 20%.
As to “(1S,3′R,6′R,7′S,8′Z,12′S)-12′-((2R)-2-((tert-butyl(diphenyl)silyl)oxy)propyl)-6-chloro-7′-hydroxy-3,4-dihydro-2H,15′H-spiro[naphthalene-1,22′-[20]oxa[13]thia[1,14]diazatetracyclo[14.7.2.0^3,6.0^19,24]pentacosa[8,16,18,24]tetraen]-15′-one 13′,13′-dioxide or (1S,3′R,6′R,7′S,8′Z,12′R)-12′-((2R)-2-((tert-butyl(diphenyl)silyl)oxy)propyl)-6-chloro-7′-hydroxy-3,4-dihydro-2H,15′H-spiro[naphthalene-1,22′-[20]oxa[13]thia[1,14]diazatetracyclo[14.7.2.0^3,6.0^19,24]pentacosa[8,16,18,24]tetraen]-15′-one 13′,13′-dioxide”, under “rcm bond, 16-membered ring, Hoveyda-Grubbs II (10 mol%), DCM, 1.5 mM, 45.0 °C”, the ring closure, isolated yield is 30%.
Turning to `O=C1NS(=O)(=O)CC/C=C/[C@@H](O)[C@@H]2CC[C@H]2CN2C[C@@]3(CCCc4cc(Cl)ccc43)COc3ccc1cc32` [Example 221, (1S,3′R,6′R,7′R,8′E)-6-chloro-7′-hydroxy-3,4-dihydro-2H,14′H-spiro[naphthalene-1,21′-[19]oxa[12]thia[1,13]diazatetracyclo[13.7.2.0^3,6.0^18,23]tetracosa [8,15,17,23]tetraen]-14′-one 12′,12′-dioxide], the IC50 – broadly, the concentration needed to halve the response being measured – in series [1] amounted to 10.8 nM. For the setting “from C=CCCS(=O)(=O)NC(=O)c1ccc2c(c1)N(C[C@@H]1CC[C@H]1[C@H](O)/C=C/CCC)C[C@@]1(CCCc3cc(Cl)ccc31)CO2, rcm bond, 15-membered ring, Hoveyda-Grubbs II (portionwise), AcOH, 5.2 mM”, this compound had a ring closure, isolated yield of 48%.
The compound `O=C1NS(=O)(=O)CC2CC2C=C[C@H](O)[C@@H]2CC[C@H]2CN2C[C@@]3(CCCc4cc(Cl)ccc43)COc3ccc1cc32` (single isomer, unassigned) gave a ring closure, isolated yield (from C=C[C@H](O)[C@@H]1CC[C@H]1CN1C[C@@]2(CCCc3cc(Cl)ccc32)COc2ccc(C(=O)NS(=O)(=O)CC3CC3/C=C/C)cc21, rcm bond, 16-membered ring, Hoveyda-Grubbs II, DCE, 2.0 mM, 60.0 °C, 6.0 h) of 12%.
Turning to `C=CC[C@@H](O)[C@H](C)S(=O)(=O)NC(=O)c1ccc2c(c1)N(C[C@@H]1CC[C@H]1[C@@H](O)/C=C/CCC)C[C@@]1(CCCc3cc(Cl)ccc31)CO2`, under “the molecule shown is the open-chain precursor, rcm bond, 16-membered ring, Hoveyda-Grubbs II (50 mol%), AcOH, 8.6 mM, 60.0 °C”, the ring closure, isolated yield came to 24.5%.
Take “(1S,3′R,6′R,7′S,8′E,12′R)-12′-((2S)-2-((tert-butyl(diphenyl)silyl)oxy)propyl)-6-chloro-7′-hydroxy-3,4-dihydro-2h,15′h-spiro[naphthalene-1,22′-[20]oxa[13]thia[1,14]diazatetracyclo[14.7.2.0^3,6.0^19,24]pentacosa[8,16,18,24]tetraen]-15′-one 13′,13′-dioxide] or (1S,3′R,6′R,7′S,8′E,12′S)-12′-((2S)-2-((tert-butyl(diphenyl)silyl)oxy)propyl)-6-chloro-7′-hydroxy-3,4-dihydro-2h,15′h-spiro[naphthalene-1,22′-[20]oxa[13]thia[1,14]diazatetracyclo[14.7.2.0^3,6.0^19,24]pentacosa[8,16,18,24]tetraen]-15′-one 13′,13′-dioxide”: the ring closure, isolated yield (rcm bond, 16-membered ring, Hoveyda-Grubbs II (20 mol%), DCM, 1.5 mM, 45.0 °C) came to 27%.
For the compound `O=C1NS(=O)(=O)C2CC(/C=C/[C@H](O)[C@@H]3CC[C@H]3CN3C[C@@]4(CCCc5cc(Cl)ccc54)COc4ccc1cc43)C2`, the ring closure, isolated yield (from NS(=O)(=O)C1CC(/C=C/[C@H](O)[C@@H]2CC[C@H]2CN2C[C@@]3(CCCc4cc(Cl)ccc43)COc3ccc(C(=O)O)cc32)C1, amide bond, 16-membered ring, EDC/DMAP, DCM, 2.0 mM) is 3.3% and 22%.
`O=C1NS(=O)(=O)NCCC=C[C@H](O)[C@@H]2CC[C@H]2CN2C[C@@]3(CCCc4cc(Cl)ccc43)COc3ccc1cc32` returned a ring closure, isolated yield (from C=CCCNS(=O)(=O)NC(=O)c1ccc2c(c1)N(C[C@@H]1CC[C@H]1[C@@H](O)C=C)C[C@@]1(CCCc3cc(Cl)ccc31)CO2, rcm bond, 16-membered ring, Hoveyda-Grubbs II, 1,1-dichloroethane, 1.5 mM, 50.0 °C, 24.0 h) of 61%.
On to `O=C1NS(=O)(=O)C[C@H]2C[C@H]2/C=C/[C@H](O)[C@@H]2CC[C@H]2CN2C[C@@]3(CCCc4cc(Cl)ccc43)COc3ccc1cc32` (mixture of isomers), for which the ring closure, isolated yield (from C=C[C@H](O)[C@@H]1CC[C@H]1CN1C[C@@]2(CCCc3cc(Cl)ccc32)COc2ccc(C(=O)NS(=O)(=O)C[C@@H]3C[C@@H]3/C=C/C)cc21, rcm bond, 16-membered ring, Hoveyda-Grubbs II, DCE, 1.99 mM, 60.0 °C, 6.0 h) came out at 29%.
Where the note is “from C=CCC[C@@H](C)S(=O)(=O)NC(=O)c1ccc2c(c1)N(C[C@@H]1CC[C@@]1(C)[C@@H](O)C=C)C[C@@]1(CCCc3cc(Cl)ccc31)CO2, rcm bond, 16-membered ring, Hoveyda-Grubbs II, DCM, 2.0 mM, […]”, `C[C@@H]1CC/C=C/[C@H](O)[C@]2(C)CC[C@H]2CN2C[C@@]3(CCCc4cc(Cl)ccc43)COc3ccc(cc32)C(=O)NS1(=O)=O` came in with a ring closure, isolated yield of 12.4%.
As for “[(1S,3′R,6′R,7′S,8′Z,12′R)-12′-((2R)-2-((tert-butyl(diphenyl)silyl)oxy)propyl)-6-chloro-7′-hydroxy-3,4-dihydro-2h,15′h-spiro[naphthalene-1,22′-[20]oxa[13]thia[1,14]diazatetracyclo[14.7.2.0^3,6.0^19,24]pentacosa[8,16,18,24]tetraen]-15′-one 13′,13′-dioxide and (1S,3′R,6′R,7′S,8′E,12′R)-12′-((2R)-2-((tert-butyl(diphenyl)silyl)oxy)propyl)-6-chloro-7′-hydroxy-3,4-dihydro-2h,15′h-spiro[naphthalene-1,22′-[20]oxa[13]thia[1,14]diazatetracyclo[14.7.2.0^3,6.0^19,24]pentacosa[8,16,18,24]tetraen]-15′-one 13′,13′-dioxide] or [(1S,3′R,6′R,7′S,8′Z,12′S)-12′-((2R)-2-((tert-butyl(diphenyl)silyl)oxy)propyl)-6-chloro-7′-hydroxy-3,4-dihydro-2h,15′h-spiro[naphthalene-1,22′-[20]oxa[13]thia[1,14]diazatetracyclo[14.7.2.0^3,6.0^19,24]pentacosa[8,16,18,24]tetraen]-15′-one 13′,13′-dioxide and (1S,3′R,6′R,7′S,8′E,12′S)-12′-((2R)-2-((tert-butyl(diphenyl)silyl)oxy)propyl)-6-chloro-7′-hydroxy-3,4-dihydro-2h,15′h-spiro[naphthalene-1,22′-[20]oxa[13]thia[1,14]diazatetracyclo[14.7.2.0^3,6.0^19,24]pentacosa[8,16,18,24]tetraen]-15′-one 13′,13′-dioxide]”, the ring closure, isolated yield is, setting by setting: (rcm bond, 16-membered ring, Hoveyda-Grubbs II, DCM, 1.4 mM, 45.0 °C) 38%; (rcm bond, 16-membered ring, Hoveyda-Grubbs II, DCM, 1.51 mM, 45.0 °C) 52%.
`C[C@]12CC[C@H]1CN1C[C@@]3(CCCc4cc(Cl)ccc43)COc3ccc(cc31)C(=O)NS(=O)(=O)CC/C=C\C[C@@H]2O`: the ring closure, isolated yield (from C=CCCS(=O)(=O)NC(=O)c1ccc2c(c1)N(C[C@H]1CC[C@@]1(C)[C@@H](O)CC=C)C[C@@]1(CCCc3cc(Cl)ccc31)CO2, rcm bond, 16-membered ring, Hoveyda-Grubbs II, toluene, 1.0 mM, 1.5 h) worked out at 83%.
Turning to `COC[C@@]1(C)CC=C[C@H](O)[C@@H]2CC[C@H]2CN2C[C@@]3(CCCc4cc(Cl)ccc43)COc3ccc(cc32)C(=O)NS1(=O)=O` (single isomer, unassigned), under “from COC[C@@](C)(C/C=C/[C@H](O)[C@@H]1CC[C@H]1CN1C[C@@]2(CCCc3cc(Cl)ccc32)COc2ccc(C(=O)O)cc21)S(N)(=O)=O, amide bond, 15-membered ring”, the ring closure, isolated yield is 8.8% and 7.5%.
With `O=C1NS(=O)(=O)[C@@H]2C[C@H]2C/C=C/[C@H](O)[C@@H]2CC[C@H]2CN2C[C@@]3(CCCc4cc(Cl)ccc43)COc3ccc1cc32`, the ring closure, isolated yield (from C=CCC1C[C@H]1S(=O)(=O)NC(=O)c1ccc2c(c1)N(C[C@@H]1CC[C@H]1[C@@H](O)C=C)C[C@@]1(CCCc3cc(Cl)ccc31)CO2, rcm bond, 16-membered ring, Hoveyda-Grubbs II, AcOH, 0.915 mM, 36.0 h) was found to be 55%.
